According to patent publication US20110201629A1, “CYCLOHEXYL AMIDE DERIVATIVES AS CRF RECEPTOR ANTAGONISTS” (priority 2010, published 2011):

Legend:
CRF-1 = target: T1, CRF-1 (UniProt P34998); assay: CRF-1 receptor antagonism, HTRF cAMP assay in CHO cells; format: cell-based, human; details: Biological data Table 2; inhibition of CRF induced cAMP response in CHO cells, EC50 concentration of CRF
T1 sequence (P34998 1-415): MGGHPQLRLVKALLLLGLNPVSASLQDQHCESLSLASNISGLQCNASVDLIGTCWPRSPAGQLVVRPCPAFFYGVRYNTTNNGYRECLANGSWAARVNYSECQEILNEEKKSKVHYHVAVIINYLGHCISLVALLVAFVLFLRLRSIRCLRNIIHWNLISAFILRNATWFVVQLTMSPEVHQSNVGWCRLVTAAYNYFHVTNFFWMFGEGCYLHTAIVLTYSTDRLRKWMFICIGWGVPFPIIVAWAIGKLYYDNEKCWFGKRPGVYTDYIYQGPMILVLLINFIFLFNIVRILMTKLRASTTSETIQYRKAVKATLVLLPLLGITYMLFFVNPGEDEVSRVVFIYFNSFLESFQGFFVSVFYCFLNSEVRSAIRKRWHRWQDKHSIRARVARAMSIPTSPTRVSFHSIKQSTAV
Description: (§1) The CRF-1 and CRF-2 receptor antagonistic activity of the agents of the invention has been determined in vitro in the following assay:
(§2) Chinese hamster ovary (CHO) cells expressing either the human or rat recombinant CRF-1 or human CRF-2α (Chen et al, Proc Natl Acad Sci USA 90, 8967-8971, 1993; Liaw et al, Endocrinology 137, 72-77, 1996) are propagated in Dulbecco's modified Eagle medium supplemented with 10% foetal calf serum, non-essential amino acids, 100 U/ml penicillin, 100 mg/l streptomycin and 1 g/l geneticin. CHO cells expressing the rat CRF-2β receptor (Wu et al, Endocrinology 148, 1675-1687, 2007) are propagated in HAM's-F12 Glutamax supplemented with 10% foetal calf serum, 100 IU/ml penicillin, 100 mg/l streptomycin, 600 μg/ml hygromycin, 10 μg/ml blasticidin and induced with 1 μg/ml of tetracyclin for 24 hours prior to experimentation. For cyclic AMP determinations the Homogeneous Time-Resolved Fluoresce (HTRF) cAMP dynamic 2 kit (Cisbio International, France) was used as per manufacturers' instructions. CHO cells, previously cryopreserved at 3×10^6 viable cells per ml of cell recovery media (Cat no. 12648-010, Invitrogen), were thawed, centrifuged for 7 mins at 1200 rpm and resuspended in serum free media to give a concentration of 0.5×10^6 cells per/ml. Compounds of the invention, prepared in DMSO, and subsequently diluted 50 fold in assay buffer (1× Hanks balanced salt solution, 0.2% (w/v) bovine serum albumin, 1.7 mM isobutylmethylxanthine and 10 mM Hepes, pH7.4) were then added onto the 384 well low volume black assay plate (Corning Inc, US, Cat. 3676). 2000 cells/well were then added to the assay plate further diluting the compound 2 fold and then the plate was incubated for 15 mins at room temperature. Following incubation, buffer containing a 5 times final concentration of agonist, typically r/h CRF is added to the plate and incubated for 30 min at room temperature. Finally, d2 dye labeled cAMP and cryptate labeled anti-cAMP antibody, both made in lysis buffer, are added to the plate followed by a settling period of 1 hour at room temperature. During the settling period cAMP produced by the cells competes with the d2 labelled cAMP for the anti-cAMP cryptate. The plate is read on the Pherastar (BMG, Germany). Increasing levels of endogenous cAMP produced by cells can be followed by a decrease of FRET fluorescent signal and vice versa. Values represented by a change in arbitrary fluorescence units are converted into cAMP concentrations by use of a standard curve, the reagents for which are supplied with the kit. Antagonist dose response curves (1 nM-31.6 μM) are constructed and tested in the presence of an EC50 concentration of CRF relevant to the receptor (hCRF-1=3 nM, hCRF-2α=2 nM, rCRF-1=1 nM and rCRF-2β=0.1 nM). IC50 values of antagonists are calculated by fitting the percent inhibition of CRF induced cAMP response by increasing concentrations of the antagonists. The fit is performed using the nonlinear logistic function of the Activitybase software package v 5.4.5.27 (IDBS, UK).

CRF-2 = target: T2, CRF-2 (UniProt Q13324); assay: CRF-2 receptor antagonism, HTRF cAMP assay in CHO cells; format: cell-based, human; details: Biological data Table 2; inhibition of CRF induced cAMP response in CHO cells, EC50 concentration of CRF
T2 sequence (Q13324 1-411): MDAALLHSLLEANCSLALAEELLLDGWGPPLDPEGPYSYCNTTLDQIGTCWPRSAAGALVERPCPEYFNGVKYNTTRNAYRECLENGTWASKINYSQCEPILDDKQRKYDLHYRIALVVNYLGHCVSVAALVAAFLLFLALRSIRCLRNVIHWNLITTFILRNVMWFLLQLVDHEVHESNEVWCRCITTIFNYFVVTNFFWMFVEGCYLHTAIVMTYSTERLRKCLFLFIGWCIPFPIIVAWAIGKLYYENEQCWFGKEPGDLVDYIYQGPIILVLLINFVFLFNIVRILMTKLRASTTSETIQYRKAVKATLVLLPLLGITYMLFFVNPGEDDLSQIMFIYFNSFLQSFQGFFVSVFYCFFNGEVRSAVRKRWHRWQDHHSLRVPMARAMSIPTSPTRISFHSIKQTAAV
Description: as §1, §2

| IC50 (CRF-1) [nM] | IC50 (CRF-2) [nM] | SMILES |
| --- | --- | --- |
| 59 | 4760 | Cc1cc2c(cc1C)C(C)(F)C(=O)N2C[C@H]1CC[C@H](NC(=O)c2cc(Cl)cnc2C)CC1 (single isomer, unassigned; enantiomer 1) [Example 2.54, Enantiomer 1 of Trans-5-Chloro-N-[4-(3-fluoro-3,5,6-trimethyl-2-oxo-2,3-dihydro-indol-1-ylmethyl)-cyclohexyl]-2-methyl-nicotinamide] |
| 60 | 4530 | Cc1cc2c(cc1C)C(C)(F)C(=O)N2C[C@H]1CC[C@H](NC(=O)c2cc(Cl)cnc2C)CC1 (single isomer, unassigned; enantiomer 2) [Example 2.55, Enantiomer 2 of Trans-5-Chloro-N-[4-(3-fluoro-3,5,6-trimethyl-2-oxo-2,3-dihydro-indol-1-ylmethyl)-cyclohexyl]-2-methyl-nicotinamide] |
| 157 | 4810 | Cc1cccc2c1C(C)(C)C(=O)N2C[C@H]1CC[C@H](NC(=O)c2cc(Cl)cnc2C)CC1 [Example 2.27, Trans-5-Chloro-2-methyl-N-[4-(3,3,4-trimethyl-2-oxo-2,3-dihydro-indol-1-ylmethyl)-cyclohexyl]-nicotinamide] |
| 38 | 3050 | COc1ccc2c(c1)N(C[C@H]1CC[C@H](NC(=O)c3cc(Cl)cnc3C)CC1)C(=O)C2(C)C [Example 2.28, Trans-5-Chloro-N-[4-(6-methoxy-3,3-dimethyl-2-oxo-2,3-dihydro-indol-1-ylmethyl)-cyclohexyl]-2-methyl-nicotinamide] |
| 14 | 4620 | Cc1ncc(Cl)cc1C(=O)N[C@H]1CC[C@H](CN2C(=O)C(C)(C)c3ccc(Cl)cc32)CC1 [Example 2.29, Trans-5-Chloro-N-[4-(6-chloro-3,3-dimethyl-2-oxo-2,3-dihydro-indol-1-ylmethyl)-cyclohexyl]-2-methyl-nicotinamide] |
| 44 | 256 | CCn1c(=O)n(C[C@H]2CC[C@H](NC(=O)c3cc(Cl)cnc3C)CC2)c2ccccc21 [Example 2.46, Trans-5-Chloro-N-[4-(3-ethyl-2-oxo-2,3-dihydro-benzoimidazol-1-ylmethyl)-cyclohexyl]-2-methyl-nicotinamide] |
| 18 | 296 | Cc1ncc(Cl)cc1C(=O)N[C@H]1CC[C@H](Cn2c(=O)n(CC(C)C)c3ccccc32)CC1 [Example 2.47, Trans-5-Chloro-N-[4-(3-isobutyl-2-oxo-2,3-dihydro-benzoimidazol-1-ylmethyl)-cyclohexyl]-2-methyl-nicotinamide] |
| 86 | 3560 | Cc1ncc(Cl)cc1C(=O)N[C@H]1CC[C@H](Cn2c(=O)n(C)c3ccccc32)CC1 [Example 2.50, Trans-5-Chloro-2-methyl-N-[4-(3-methyl-2-oxo-2,3-dihydro-benzoimidazol-1-ylmethyl)-cyclohexyl]-nicotinamide] |
| 47 | 3870 | O=C(N[C@H]1CC[C@H](CN2C(=O)Cc3ccc(F)cc32)CC1)c1cc(C(F)(F)F)ccc1Cl [Example 3.2, Trans-2-Chloro-N-[4-(6-fluoro-2-oxo-2,3-dihydro-indol-1-ylmethyl)-cyclohexyl]-5-trifluoromethyl-bcnzamide] |
| 18 | 1950 | CCn1c(=O)n(C[C@H]2CC[C@H](NC(=O)c3cc(C(F)(F)F)ccc3Cl)CC2)c2ccccc21 [Example 3.4, Trans-2-Chloro-N-[4-(3-ethyl-2-oxo-2,3-dihydro-bcnzoimidazol-1-ylmethyl)-cyclohexyl]-5-trifluoromethyl-benzamide] |

Further lines, the compound ahead of its results:

| SMILES | IC50 (CRF-1) [nM] | IC50 (CRF-2) [nM] |
| --- | --- | --- |
| Cc1ncc(Cl)cc1C(=O)N[C@H]1CC[C@H](CN2C(=O)C(C)(C)c3ccccc32)CC1 [Example 1.3, Trans-5-chloro-N-[4-(3,3-dimethyl-2-oxo-2,3-dihydro-indol-1-ylmethyl)-cyclohexyl]-2-methyl-icotinamide] | 48 | 3800 |
| Cc1ncc(Cl)cc1C(=O)N[C@H]1CC[C@H](CN2C(=O)C3(CC3)c3cc(F)ccc32)CC1 [Example 2.6, Trans-5-chloro-N-[-4-((5′-fluoro-2′-oxospiro[cyclopropane-1,3′-indoline]-1′-yl)methyl)cyclohexyl]-2-methyl nicotinamide] | 12 | 811 |
| Cc1ncc(Cl)cc1C(=O)N[C@H]1CC[C@H](CN2C(=O)C(C)(C)c3cccc(Cl)c32)CC1 [Example 2.15, Trans-5-Chloro-N-[4-(7-chloro-3,3-dimethyl-2-oxo-2,3-dihydro-indol-1-ylmethyl)-cyclohexyl]-2-methyl-nicotinamide] | 17 | 936 |
| COc1cccc2c1N(C[C@H]1CC[C@H](NC(=O)c3cc(C(F)(F)F)ccc3Cl)CC1)C(=O)C2(C)C [Example 2.18, Trans-2-Chloro-N-[4-(7-methoxy-3,3-dimethyl-2-oxo-2,3-dihydro-indol-1-ylmethyl)-cyclohexyl]-5-trifluoromethyl-benzamide] | 50 | 1680 |
| Cc1ncc(Cl)cc1C(=O)N[C@H]1CC[C@H](CN2C(=O)[C@@](C)(F)c3ccccc32)CC1 [Example 2.20, Trans-5-Chloro-N-[4-((S)-3-fluoro-3-methyl-2-oxo-2,3-dihydro-indol-1-ylmethyl)-cyclohexyl]-2-methyl-nicotinamide] | 62 | 4590 |
| Cc1cccc2c1N(C[C@H]1CC[C@H](NC(=O)c3cc(C(F)(F)F)ccc3Cl)CC1)C(=O)C2(C)C [Example 2.23, Trans-2-Chloro-5-trifluoromethyl-N-[4-(3,3,7-trimethyl-2-oxo-2,3-dihydro-indol-1-ylmethyl)-cyclohexyl]-benzamide] | 57 | 2140 |
| Cc1ncc(Cl)cc1C(=O)N[C@H]1CC[C@H](CN2C(=O)C(F)(F)c3ccc(Cl)cc32)CC1 [Example 2.26, Trans-5-Chloro-N-[4-(6-chloro-3,3-difluoro-2-oxo-2,3-dihydro-indol-1-ylmethyl)-cyclohexyl]-2-methyl-nicotinamide] | 157 | 3120 |
